Data: patent US20210061872A1 (PROTAGONIST THERAPEUTICS, published 2021)
One block for each molecule: values may come before it.

How the values were obtained:
[1] = test system: patients with phlebotomy-dependent PV and splenomegaly; conditions: through week 32; 6 events with BAT; cited from earlier work
Cynomolgus monkeys [2] = test: PK-PD experiment, serum iron (Cobas IRON2); type: in vivo
Description: Iron content in plasma/serum was measured using a colorimetric assay on the Cobas c 111 according to instructions from the manufacturer of the assay (assay: IRON2: ACN 661).

Cynomolgus monkeys [3] = test: repeat-dose study, 13 weekly SC doses, limiting erythropoiesis; type: in vivo
Source text: A cohort of animals (4/sex/group) were sacrificed on Day 92 (Main), and the remaining animals (2/sex/group) were sacrificed on Day 120 following a 35-day recovery period (Recovery).

PV patients = test: Phase 2 study in phlebotomy-requiring Polycythemia vera
healthy subjects = test: Phase I single dose study; type: in vivo, human; conditions: 62 healthy subjects
Source text: Compound A is a hepcidin mimetic agent in clinical studies for multiple blood disorders.

human ferroportin = target: T1, human ferroportin (Homo sapiens, UniProt Q9NP59); test: ferroportin-GFP internalization/degradation assay in HEK293 cells; type: cell-based; conditions: read-out: Potency EC50
T1 construct: expressed in transfected cells
T1 sequence (Q9NP59 1-571): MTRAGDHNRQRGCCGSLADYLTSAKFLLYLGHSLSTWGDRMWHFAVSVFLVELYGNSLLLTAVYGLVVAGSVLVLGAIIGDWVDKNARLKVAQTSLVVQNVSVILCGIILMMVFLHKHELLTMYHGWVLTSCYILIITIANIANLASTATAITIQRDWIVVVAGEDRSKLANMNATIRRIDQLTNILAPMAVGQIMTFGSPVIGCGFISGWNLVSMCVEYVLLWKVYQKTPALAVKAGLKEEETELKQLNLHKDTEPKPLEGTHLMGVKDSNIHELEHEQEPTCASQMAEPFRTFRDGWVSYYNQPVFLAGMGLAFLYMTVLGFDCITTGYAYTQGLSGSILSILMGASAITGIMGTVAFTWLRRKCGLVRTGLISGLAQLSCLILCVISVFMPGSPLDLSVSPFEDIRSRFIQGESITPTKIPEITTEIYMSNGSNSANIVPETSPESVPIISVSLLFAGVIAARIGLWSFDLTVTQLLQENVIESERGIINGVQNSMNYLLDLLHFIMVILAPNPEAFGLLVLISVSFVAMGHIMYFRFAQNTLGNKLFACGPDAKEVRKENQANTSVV

PV mice = conditions: cited from earlier work
[4] = target: T2, human ferroportin (SLC40A1) fused in frame with GFP, stably expressed on HEK293 cells (human, UniProt Q9NP59 1-571); test: cell-based or functional assay
T2 sequence (looked up): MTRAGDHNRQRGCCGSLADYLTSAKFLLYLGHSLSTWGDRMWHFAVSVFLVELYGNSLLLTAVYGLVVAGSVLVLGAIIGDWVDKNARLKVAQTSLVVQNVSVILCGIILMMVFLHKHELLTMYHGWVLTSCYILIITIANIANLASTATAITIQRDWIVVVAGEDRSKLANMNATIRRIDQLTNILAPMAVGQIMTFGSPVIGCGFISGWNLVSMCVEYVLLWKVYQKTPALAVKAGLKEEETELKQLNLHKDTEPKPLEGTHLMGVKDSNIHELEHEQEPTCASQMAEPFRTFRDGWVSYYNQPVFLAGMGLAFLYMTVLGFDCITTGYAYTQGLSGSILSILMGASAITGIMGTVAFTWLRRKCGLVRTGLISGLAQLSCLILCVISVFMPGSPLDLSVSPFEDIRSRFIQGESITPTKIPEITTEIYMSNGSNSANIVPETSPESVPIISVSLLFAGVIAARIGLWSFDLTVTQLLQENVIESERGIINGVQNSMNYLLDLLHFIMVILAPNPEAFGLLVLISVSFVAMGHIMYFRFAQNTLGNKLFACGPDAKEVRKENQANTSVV

[5] = SC doses of 10 mg to 80 mg, various times after dosing

Molecule: N#CC[C@H](C1CCCC1)n1cc(-c2ncnc3[nH]ccc23)cn1 [ruxolitinib]
thromboembolic events [1]: 1 event

Molecule: Isovaleric acid-DTHFPCIKF(K(PEG11-Palm))PRSK[Sar]CK-NH2 [Compound B]
time of maximal serum iron reduction (Cynomolgus monkeys [2]; 2.93 mg/kg SC): about 12 hour
serum iron reduction, lower than pre-dose levels (Cynomolgus monkeys [2]; 2.93 mg/kg SC, at about 12 hour): 12 fold
serum concentrations having maximum effect on serum iron (Cynomolgus monkeys [2]; SC single dose): 50 to 125 ng/mL
serum concentrations that were effective on serum iron (Cynomolgus monkeys [2]; SC single dose): 25 to 125 ng/mL

Molecule: minihepcidin: hepcidin mimetic administered to PV mice in Casu et al., Blood 2016 (DTHFPICIF)
hematocrit (PV mice): normalizes hematocrit
splenomegaly (PV mice): significantly reduces splenomegaly

B1: Mini-Hepcidin (peptide)
peptide: H-DTHFPICIF-NH2
Potency EC50 (nM); ferroportin internalization/degradation, decrease in GFP fluorescence of ferroportin-GFP HEK293 cells [4]: 712 nM

B2: RI-Mini Hepcidin (peptide)
peptide: FICIPFHTD
modifications: all residues are D-amino acids (Hy-DPhe-DIle-DCys-DIle-DPro-DPhe-DHis-DThr-DAsp-NH2); C-terminal amide
Potency EC50 (nM); ferroportin internalization/degradation, decrease in GFP fluorescence of ferroportin-GFP HEK293 cells [4]: > 10000 nM

Now from value to molecule, other results behind:

total bilirubin (tBili) (Cynomolgus monkeys [3]; at ≥2 mg/kg/day, treatment period, FIG. 4): increase in total bilirubin
plasma concentrations of Compound A, lower end of range (below detectable) (PV patients; [5]): < 2 ng/mL
plasma concentrations of Compound A, upper end of range (PV patients; [5]): 866 ng/mL
platelet counts (PV patients; over the course of treatment, FIG. 14): remained generally steady
leukocyte count (PV patients; over the course of treatment, FIG. 16): remained generally steady
grade of most injection site reactions (PV patients; transient, no patient discontinued): 1-2 grade
Molecule: CCCCCCCCCCCCCCCC(=O)N[C@@H](CCC(=O)NCCCC[C@@H]1NC(=O)[C@H]([C@@H](C)CC)NC(=O)[C@@H](NC(=O)[C@@H]2CCCN2C(=O)[C@H](Cc2ccccc2)NC(=O)[C@H](Cc2c[nH]cn2)NC(=O)[C@@H](NC(=O)[C@H](CC(=O)O)NC(=O)CC(C)C)[C@@H](C)O)CSSC[C@@H](C(=O)N[C@@H](CCCCN)C(N)=O)NC(=O)CNC(=O)[C@H](CCCCN)NC(=O)[C@H](CO)NC(=O)[C@H](CCCNC(=N)N)NC(=O)[C@@H]2CCCN2C(=O)[C@H](CCC(=O)O)NC(=O)[C@H](Cc2ccccc2)NC1=O)C(=O)O [Compound A]
platelets (Cynomolgus monkeys [3]; 6 mg/kg/dose, male and female, FIG. 5): significantly elevated levels of platelets
bone marrow (femur, sternum) findings (Cynomolgus monkeys [3]; at ≥2 mg/kg/dose): hematopoietic hypercellularity occurred in bone marrow
liver and spleen findings (Cynomolgus monkeys [3]; at ≥2 mg/kg/dose): extramedullary hematopoiesis and hemosiderin deposition was observed in the liver and spleen
most frequent adverse events (PV patients; 10-80 mg SC weekly): injection site reaction (ISR) reported by three patients
tolerability (PV patients; 10-80 mg SC weekly): well tolerated
adverse events (healthy subjects): without significant adverse events

EC50 (human ferroportin): > 10 µM
Molecule: CC[C@@H](C)[C@@H](NC(=O)[C@H](N)Cc1ccccc1)C(=O)N[C@H](CS)C(=O)N[C@@H](C(=O)N1CCC[C@@H]1C(=O)N[C@H](Cc1ccccc1)C(=O)N[C@H](Cc1c[nH]cn1)C(=O)N[C@@H](C(=O)N[C@H](CC(=O)O)C(N)=O)[C@H](C)O)[C@H](C)CC [RI-Mini Hepcidin, Hy-DPhe-DIle-DCys-DIle-DPro-DPhe-DHis-DThr-DAsp-NH2]
